Measurements taken from PubChem BioAssay AID463074 (Broad Institute, 2010).
“And” between values parts separate entries of the source, which are not always exact repeats. Equal entries are not always repeated. The source made the active and inactive calls.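 The calls were made as follows: active = AC50 no more than tenfold above the top dose tested, or full inhibition at every dose with a flat fit (cut at about 19 µM in these data); inconclusive = flat curve fit with inhibition between 30% and 70%, or poor fit; inactive = AC50 more than tenfold above the top dose tested.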

tested on: HMLE_sh_eGFP viability, CellTiter-Glo luminescence, 72 h; assay: cytotoxicity in HMLE control line with eGFP shRNA, dose response, counter-screen for HMLE_sh_ECad selective toxicity project, cell-based, HMLE_sh_eGFP, luminescence (AID 463074);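 also: counterscreen control line to flag general toxicity for the HMLE_sh_ECad screen; potency for loss of viability as luminescence drops below DMSO wells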

Compound	AC50
CC(C)(C)C1CCC(CN2C(Nc3ccccc3)=NC[C@@H]2Cc2ccccc2)CC1 (stereo partly specified)	6.54 µM
C[C@@H]1CN([C@H](C)CO)C(=O)c2cc(NC(=O)Nc3ccc(C(F)(F)F)cc3)ccc2O[C@H]1CN(C)S(=O)(=O)c1ccc(Cl)cc1	3.84 µM
Cc1ccc(NS(=O)(=O)c2sc3ccc(Cl)cc3c2C)cc1	3.78 µM
CCN1CCN(c2cc(C(C)(C)C)nc3c(-c4ccccc4)c(C)nn23)CC1	6.81 µM
Cc1cccc2sc(NC(=O)C3c4ccccc4Oc4ccccc43)nc12	5.71 µM
Cc1ccc(C(C#N)c2ccc3c(C(F)(F)F)cc(C(F)(F)F)nc3n2)cc1 (stereo unspecified)	2.56 µM
Cc1ccc(C(=O)Nc2nc(C)c(C(=O)Nc3ccc4c(c3)CCC4)s2)cc1	18.8 µM
O=C(CNC(=S)N(Cc1ccccc1)Cc1ccccc1F)NCCc1ccc(Cl)cc1	6.98 µM
C=CCn1c(SCC(=O)c2[nH]c(C)c(C(=O)OCC)c2C)nc2scc(-c3ccc(OC)c(OC)c3)c2c1=O	3.99 µM
CCOc1cc(/C=C2/SC(=S)N(Cc3ccccc3)C2=O)ccc1O	3.76 µM
O=C(Nc1ccc(O)cc1)c1ccc(NC(=O)c2cccs2)cc1	10 µM
Cc1ccc(N/N=C/c2cccnc2)cc1	6.14 µM
NC(=O)CC(NC(=O)Cc1ccc(Br)cc1)c1ccc(N2CCC(Cc3ccccc3)CC2)c([N+](=O)[O-])c1 (stereo unspecified)	14.7 µM
CCc1ccc2oc(C(=O)NCC(c3ccc(OC)cc3)N3CCCCC3)c(C)c2c1 (stereo unspecified)	6.09 µM
S=c1[nH]nc(COc2ccccc2)n1/N=C/C(Cl)=C/c1ccccc1	3.55 µM
CC(NCC(O)COCCC12CC3CC(CC(C3)C1)C2)c1ccccc1 (stereo unspecified)	3.32 µM
Cc1cc(C(=O)Nc2nc3c(s2)CCCC3)cs1	> 19.5 µM (inactive)
Cc1ccc(-c2cc(-c3ccccc3C)[nH]n2)c(O)c1	8.64 µM
COC(=O)c1ccccc1NC(=O)c1nc(S(=O)(=O)Cc2ccccc2)ncc1Cl	3.25 µM
O=c1[nH]c(CN2CC=C(c3ccccc3)CC2)nc2scc(-c3ccccc3)c12	5.19 µM
O=C(O)CCN1C(=O)C(=C2CCCCCC2)SC1=S	> 19.5 µM (inactive)
COc1ccc(OC)c(-c2csc(N(CC3CCCO3)C(=O)C3CCCCC3)n2)c1 (stereo unspecified)	7.05 µM
COc1ccc(C)cc1NS(=O)(=O)c1ccc(NC(=O)CN(c2cc([N+](=O)[O-])ccc2C)S(C)(=O)=O)cc1	3.8 µM
Cc1ccsc1/C=N/NC(=O)c1cc(-c2ccncc2)nc2ccccc12	0.257 µM
Cc1ccc(C)c(S(=O)(=O)N2CCN(c3ncnc4sccc34)CC2)c1	3.19 µM
Cc1nc(N2CCCCC2)c2c(C)c(C(=O)Nc3ccccc3C(F)(F)F)sc2n1	1.85 µM

Compound	AC50
O=C(Nc1ccc(Nc2ccccc2)cc1)c1cccc(F)c1	17.6 µM
COc1cccc(-c2sc3ccccc3c2-c2ccc(OCCN3CCOCC3)cc2)c1	4.3 µM
CCCS(=O)(=O)c1c(S(=O)(=O)CCC)c2c(C)cccn2c1C(=O)N/N=C/c1cc(O)cc(O)c1	1.72 µM
CCCN1CCc2c(sc(NC(=O)c3ccc(S(=O)(=O)N(C)c4ccccc4)cc3)c2C(=O)NC)C1	5.34 µM
c1ccc(C[C@H]2CNCCN2CCCCC2CCCCC2)cc1	6.83 µM
CCCOc1ccc(/C=N/Nc2cc(N3CCOCC3)ncn2)c(O)c1	3.38 µM
CC1(NC(=O)CC(c2ccccc2)(c2ccccc2)c2ccccc2)CCN(CCCc2ccccc2)C1=O (stereo unspecified)	6.85 µM
CCN(CC(=O)NC1CCCCC1)S(=O)(=O)c1ccc(Cl)cc1	> 19.5 µM (inactive)
Brc1cccc(OCCN2CCc3ccccc3C2)c1	> 19.5 µM (inactive)
O=c1cc(N2CCCCC2)c(-c2ccccc2)nn1Cc1cccc(F)c1	5.13 µM
Cc1cccc(C)c1N=Nc1c(C)cc(O)cc1C	7.2 µM
CCc1ccc(-c2cc(C(=O)N/N=C/c3c[nH]c4ccccc34)[nH]n2)cc1	12.6 µM
CC(C)n1cnc2c(NCc3ccccc3)cc(Cc3ccc(F)cc3)cc21	4.67 µM
O=S(=O)(NCc1ccncc1)c1ccc(S(=O)(=O)NCC2CCCO2)cc1 (stereo unspecified)	> 19.5 µM (inactive)
CC(C)(C)[C@@H]1CCC(=O)N(CC[C@H](Sc2ccc(Br)cc2)c2ccccc2)CC1	3.38 µM
CCOC(=O)C1=C(c2ccccc2)N=c2s/c(=C\c3cccc(O)c3)c(=O)n2C1c1cccs1 (stereo unspecified)	3.39 µM
COc1ccc(/C=N/OCC(=O)N2CC3(C)CC2CC(C)(C)C3)cc1 (stereo unspecified)	14.3 µM
CCCSc1nnc(CSc2nc3ccccc3s2)n1-c1ccccc1	3.01 µM
COc1cccc(N2CCN(Cc3nc4scc(-c5ccccc5)c4c(=O)[nH]3)CC2)c1	2.59 µM
O/N=C(\c1ccc(Cl)cc1Cl)c1ncc(C(F)(F)F)cc1Cl	13.9 µM
O=C(CS(=O)c1ccc(C(F)(F)F)cc1[N+](=O)[O-])Oc1ccccc1 (stereo unspecified)	5.22 µM
Cc1nc(NC(=O)c2ccco2)sc1-c1csc(Nc2ccc(Cl)cc2)n1	2.54 µM
CC(C)(C)OC(=O)[C@H](Cc1ccccc1)NC(=O)c1[nH]cnc1C(=O)Nc1ccc(Cl)cc1	3.92 µM
CN1C(=O)/C(=C/c2cccc(Cl)c2)Sc2ccc(C(=O)NCc3cccnc3)cc21	5.15 µM
CCCC/C(C)=C/[C@@H](NP(=O)(c1ccccc1)c1ccccc1)c1ccccc1	6.68 µM
O=Nc1c(O)n(Cc2ccc(Cl)c(Cl)c2)c2ccccc12	6.85 µM

Compound	AC50
CC(C)(C)N(Cc1ccccc1)C(=O)c1cc2ccccc2o1	0.653 µM
Cc1ccc(/C=C/C(=O)NCCc2ccccc2)o1	> 19.5 µM (inactive)
CCCCNc1c(-c2cccc(-c3cc(C(C)=O)cs3)c2)nc2ccc(C)cn12	3.48 µM
O=C(O)c1ccc(C=C(c2nc3ccccc3s2)c2nc3ccccc3s2)cc1	5.12 µM
NC(=O)CC(NC(=O)c1ccc(Br)cc1)c1ccc(N2CCCCCC2)c([N+](=O)[O-])c1 (stereo unspecified)	19.6 µM
C=C(C)[C@@H]1CC[C@]2(C(=O)O)CC[C@]3(C)[C@H](CC[C@@H]4[C@@]5(C)CC[C@H](O)C(C)(C)[C@@H]5CC[C@]43C)[C@@H]12	3.97 µM
CCN(CC)CCOc1ccc(/C(=C(/Cl)c2ccccc2)c2ccccc2)cc1	0.992 µM and 2.55 µM
Cc1ccc(CN2CCSc3ccc(C(=O)NCc4ccco4)cc32)cc1	> 19.5 µM (inactive)
Cc1ccc(C(=O)ONc2ccc(N=NC(=O)c3ccccc3O)cc2)cc1	3.56 µM
CC(=O)Nc1ccc(OCC(O)CN2CCN(c3ccc(C)c(Cl)c3)CC2)cc1 (stereo unspecified)	8.97 µM
Oc1ccccc1-n1c(-c2ccccc2)ccc1-c1ccccc1	7.62 µM
COc1ccc(C2c3c(ncn(Cc4ccco4)c3=N)Oc3ccc4ccccc4c32)cc1 (stereo unspecified)	7.79 µM
COc1cc(S(=O)(=O)N2CCCCCC2)c(OC)cc1Br	2.55 µM
N=c1c2c(ncn1Cc1ccco1)Oc1ccc3ccccc3c1C2c1ccccc1 (stereo unspecified)	4.5 µM
COc1ccc2sc(-c3ccc(SC)cc3)c(-c3ccc(O)cc3)c2c1	2.42 µM
O=C(/C(=C\c1ccccc1)c1nc2ccccc2[nH]1)c1ccc(Cl)cc1	3.27 µM
CNc1nc(SCc2ccccc2Cl)nc2c1CCCC2	8.77 µM
COCC(C)NC(=O)NC1(C(F)(F)F)Oc2ccc(Cl)cc2O1 (stereo unspecified)	18.3 µM
Cc1ccc(C(C[N+](=O)[O-])n2nc(C)cc2C)cc1 (stereo unspecified)	6.74 µM
S=C(Nc1ccccc1)Nc1nc2ccccc2n1CCOc1ccc(Br)cc1	14 µM
COc1ccc(OC)c(C(=O)/C=C/c2ccccc2C(F)(F)F)c1	6.67 µM
COc1ccc(C2=Nn3c(nnc3-c3ccccc3F)SC2)cc1OC1CCCC1	5.54 µM
c1ccc(NNC2=NCCCCC2)cc1	2.89 µM
Cc1cc(C)cc(CC(Cc2nc3ccccc3[nH]2)c2nc3ccccc3[nH]2)c1 (stereo unspecified)	7.82 µM
